Results on three compounds are retold here after patent US7470707B2, “Crystalline monohydrate clopidogrel naphthalenedisulfonate and process of preparation” (Hanmi Pharm. Co., Ltd, priority 2004, dated 2008).

Where a name gives a salt, the structure may show the parent alone.

For series [1] the following is noted: 60° C. temperature and 75% relative humidity; resulting in gum type or liquefied form. The text has this: European Patent No. 281,459 B1 and U.S. Pat. No. 4,847,265 disclose a number of acid addition salts of clopidogrel prepared using various inorganic or organic acids.
For series [2] the following is noted: orally administered to rat; cited from earlier work.

`Br` [hydrobromide]: the Hygroscopicity result in series [1] was “highly hygroscopic”.

For `O=S(=O)(O)c1cccc2c(S(=O)(=O)O)cccc12` [1,5-naphthalenedisulfonic acid], the LD50 in series [2] is on record as 2,420 mg/kg. In the case of hydrochloride, the Hygroscopicity result in series [1] is on record as “highly hygroscopic”.
